Twelve compounds from patent publication EP0222274A1, “2-Hydroxybenzamides” (NIHON TOKUSHU NOYAKU SEIZO K.K., priority 1985, dated 1987) can be followed below.

Series [1] concerns "Komatsuna" (einer Varietät chinesischen Kohls). Kind of series: Phytotoxicity to "Komatsuna" in the clubroot control test. Format: in vivo, "Komatsuna" (Varietät: Misugi). From the text:
(§1) Test der Bekämpfung von Kohlhernie bei "Komatsuna" (einer Varietät chinesischen Kohls):
(§2) Aktive Verbindung: 1,5 Teile; Isopropylhydrogenphosphat (PAP): 0,5 Teile; Ton-Pulver: 98 Teile.
(§3) Die oben angegebenen Stoffe wurden pulverisiert und vermischt, wodurch ein Stäubemittel erhalten wurde.
(§4) Mit Plasmodiophora brassicae infizierte Erde wurde in unglasierte Töpfe mit einem Durchmesser von 21 cm gefüllt, und ein Stäubemittel einer Verbindung gemäß der vorliegenden Erfindung, das wie oben angegeben hergestellt worden war, wurde in einer vorher festgelegten Konzentration gleichmäßig mit der Erde vermischt.
(§5) Samen von "Komatsuna" (Varietät: Misugi) wurden in einer Menge von 20 Körnern pro Topf eingesät. Die Töpfe wurden 4 Wochen in einem auf 20°C gehaltenen klimatisierten Gewächshaus gehalten. Dann wurden die Pflanzen ausgegraben, und der Krankheitszustand wurde nach dem folgenden Maßstab bewertet. Der Erkrankungs-Index und das Verhältnis der erkrankten Pflanzen wurden berechnet.

The test system of the next series is Rosellinia necatrix. Kind of series: Control of root mould (Wurzelschimmel) in apple, cut twigs in infected soil. Format: in vivo. The note with it: Konzentration des Wirkstoffs 0,1 %; 5 ml per 100 ml soil; apple twigs (Star King), 3 weeks at 25°C; score 0 (kein Befall) to 5. The source says:
(§6) Aktive Verbindung: 50 Gew.-Teile; Träger: 45 Gew.-Teile einer Mischung aus Diatomeenerde und Kaolin (1:5), Emulgator: 5 Gew.Teile Polyoxyethylenalkylphenylether.
(§7) Die aktive Verbindung, der Träger und der Emulgator in den oben angegebenen Mengen wurden pulverisiert und miteinander zu einem benetzbaren Pulver vermischt. Eine vorher festgegegte Menge des benetzbaren Pulvers wurde mit Wasser vermischt.
Test der Bekämpfung des Wurzelschimmels beim Apfel
In Reiskleie kultivierter Rosellinia necatrix wurde in sterilisierte Erde inokuliert, um eine infizierte Erde herzustellen. Eine wie in Beispiel 5 präparierte aktive Verbindung in vorher festgelegter Konzentration wurde in einer Menge von 5 ml pro 100 ml Erde gleichmäßig in die Erde hineingegossen und ausreichend mit dieser ver mischt. Abgeschnittene Apfelzweige (Varietät: Star King) wurden senkrecht in der Erde eingebettet, so daß die Hälfte jedes Zweiges in der Erde steckte. Die Zweige wurden dann unter Gewächshaus-Bedingungen bei 25°C gehalten. Drei Wochen später wurde der Grad des Befalls der Zweige durch den oben bezeichneten Pilz beurteilt und nach dem Grad der Verletzung anhand der folgenden […] bewertet:
0: Kein Befall; 1: geringfügiger Befall wurde beobachtet; 2: Befall wurde beobachtet auf 3 % bis weniger als 10 % der Oberfläche der Zweige; 3: Befall wurde beobachtet auf 10 % bis weniger als 30 % der Oberfläche der Zweige; 4: Befall wurde beobachtet auf 30 % bis weniger als 50 % der Oberfläche der Zweige; 5: Befall wurde beobachtet auf wenigstens 50 % der Oberfläche der Zweige.

Another series concerns Rhizopus oryzae. Kind of series: Control of damping-off of rice seedlings, soil drench. The settings on record: 500 ml per box, rice (Kusabue). Format: in vivo.
Excerpt: Test der Bekämpfung des Umfallens von Reis-Setzlingen (Wurzelbrand der Keimpflanzen)
Präparat einer Test-Verbindung:
as §6, §7
Sterilisierte Erde wurde mit in Reiskleie kultiviertem Rhizopus oryzae inokuliert. Die Erde wurde in Anzuchtkästen für Sämlinge (60 cm x 40 cm x 3 cm) eingefüllt. Die wie oben angegeben präparierte aktive Verbindung wurde in vorher festgelegter Konzentration in einer Menge von 500 ml pro Kasten gleichmäßig in die Erde hineingegossen. Samen von Reis (Varietät: Kusabue) wurden in einer Menge von 200 g (Trockengewicht) pro Kasten ausgesät und drei Tage in einer Anzucht-Vorrichtung bei 32°C kultiviert. Danach wurden die Anzucht-Kästen in ein Glashaus überführt und in üblicher Weise gehalten. 20 Tage später wurden 200 Setzlinge aus der Mitte jedes Anzuchtkastens herausgezogen, und der Grad der Verletzung wurde nach dem folgenden Maßstab bewertet. Der Bekämpfungs-Index und das Verhältnis der gesunden Setzlinge wurden berechnet.
Grad der Verletzung: 0: n₀ = gesunde Setzlinge; 1: n₁ = Setzlinge, bei denen das Wachstum der Haarwurzeln in geringem Maße schlecht war; 2: n₂ = Setzlinge, bei denen eine keulenartige Verformung teilweise an den Pfahlwurzeln beobachtet wurde; 3: n₃ = Setzlinge, bei denen das Wachstum der Pfahlwurzeln außerordentlich schlecht war und viele keulenartige Verformungen auftraten; 4: n₄ = Setzlinge, die keulenartig geworden waren, mit gehemmtem Wachstum der Pfahlwurzeln und Deckwurzeln.

The next series relates to Plasmodiophora brassicae. The series can be described thus: Control of clubroot (Kohlhernie) in "Komatsuna" grown in infected soil, dust mixed into soil. Format: in vivo. The note with it: 4 weeks at 20°C.
Excerpt: as §1
Präparat einer aktiven Verbindung:
as §2, §3, §4, §5
3: L₁ = Zahl der Pflanzen, deren Wurzeln durch das Auftreten der Kohlhernie (Kropfkrankheit) sehr stark vergrößert worden waren; 2: L₂ - Zahl der Pflanzen, bei denen Kohlhernie auftrat, jedoch auf die Pfahlwurzeln beschränkt war; 1: L₃ = Zahl der Pflanzen, bei denen geringsfügiges Auftreten von Kohlhernie beobachtet wurde; 0: L₄ = Zahl der gesunden Pflanzen. [formula]

Setting [2] is: Konzentration des Wirkstoffs 0,1 %.
[3] abbreviates: Konzentration des Wirkstoffs 0,15 %.

With `CCOC(NC(=O)c1ccccc1O)C(Cl)(Cl)Cl` (centres unmarked) [A-1, reference compound], the Phytotoxizität result in series [1] (Menge des Wirkstoffs 20 kg/ha) is “keine”. The “Grad der der Verletzung” value in the series with Rosellinia necatrix is listed as 3. For the same compound, in the series on Rhizopus oryzae (setting [2]), the Bekämpfungs-Index came to 43%, the “Grad der Verletzung” value is listed as 28,3% and the “Verhältnis der gesunden Setzlinge” value is recorded as 35,5%.
For the compound `O=C(NC(OCCBr)C(Cl)(Cl)Cl)c1ccccc1O` (centres unmarked) [B-1, reference compound], the Phytotoxizität result in series [1] (Menge des Wirkstoffs 20 kg/ha) is on record as “keine”. Further, in the series with Rhizopus oryzae (setting [2]), the Bekämpfungs-Index is given as 60%, the “Grad der Verletzung” value is recorded as 19,6% and the “Verhältnis der gesunden Setzlinge” value is listed as 55,5%.
On to `CCCCNC(=O)n1c(NC(=O)OC)nc2ccccc21` [Benomyl handelsüblich, Methyl-1-(butylcarbamoyl)-2-benzimidazolcarbamat, reference compound], for which the “Grad der der Verletzung” value in the series with Rosellinia necatrix is on record as 1.
For the compound `O=[N+]([O-])c1c(Cl)c(Cl)c(Cl)c(Cl)c1Cl` [PCNB handelsüblich, Pentachloronitrobenzol, reference compound], in the series on Plasmodiophora brassicae (Menge des Wirkstoffs 60 kg/ha), the Erkrankungs-Index is given as 58,3% and the “Verhältnis der erkrankten Pflanzen” value turned out to be 75%. In series [1] (Menge des Wirkstoffs 60 kg/ha), the Phytotoxizität entry is reported as “keine”.
Take `N#Cc1c(Cl)c(Cl)c(Cl)c(C#N)c1Cl` [TPN handelsüblich, Tetrachloroisophthalsäurenitril, reference compound]: in the series with Rhizopus oryzae (setting [3]), the Bekämpfungs-Index was determined as 85%, the “Grad der Verletzung” value is 7,3% and the “Verhältnis der gesunden Setzlinge” value was 75,5%.
In the case of `CCOC(NC(=O)c1cc(Cl)ccc1O)C(Cl)(Cl)Cl` (centres unmarked) [Verbindung 1, N-(2,2,2-Trichloro-1-ethoxyethyl)-5-chloro-2-hydroxybenzamid], in the series with Plasmodiophora brassicae (Menge des Wirkstoffs 5 kg/ha), the Erkrankungs-Index came to 0% and the “Verhältnis der erkrankten Pflanzen” value was 0%. The Phytotoxizität entry in series [1] (Menge des Wirkstoffs 5 kg/ha) is reported as “keine”.
As to `C=CCOC(NC(=O)c1cc(Cl)ccc1O)C(Cl)(Cl)Cl` (centres unmarked) [Verbindung 2, N-(2,2,2-Trichloro-1-allyloxyethyl)-5-chloro-2-hydroxybenzamid], in the series on Plasmodiophora brassicae (Menge des Wirkstoffs 5 kg/ha), the Erkrankungs-Index came out at 0% and the “Verhältnis der erkrankten Pflanzen” value amounted to 0%. Moreover, the Phytotoxizität result in series [1] (Menge des Wirkstoffs 5 kg/ha) is “keine”. Also, in the series on Rhizopus oryzae (setting [2]), the Bekämpfungs-Index is 95%, the “Grad der Verletzung” value was 2,7% and the “Verhältnis der gesunden Setzlinge” value is reported as 90,5%.
On to `O=C(NC(OCC(F)(F)F)C(Cl)(Cl)Cl)c1cc(Cl)ccc1O` (centres unmarked) [Verbindung 4, N-[2,2,2-Trichloro-1-(2,2,2-trifluoroethoxy)ethyl]-5-chloro-2-hydroxybenzamid], for which, in the series with Plasmodiophora brassicae (Menge des Wirkstoffs 5 kg/ha), the Erkrankungs-Index amounted to 0% and the “Verhältnis der erkrankten Pflanzen” value was 0%. Moreover, the Phytotoxizität result in series [1] (Menge des Wirkstoffs 5 kg/ha) is recorded as “keine”. Moreover, in the series with Rhizopus oryzae (setting [2]), the Bekämpfungs-Index is recorded as 95%, the “Grad der Verletzung” value is 2,5% and the “Verhältnis der gesunden Setzlinge” value was 91,5%.
As for `O=C(NC(OCC(F)(F)F)C(Cl)(Cl)Cl)c1cc(Br)ccc1O` (centres unmarked) [Verbindung 8], in the series on Plasmodiophora brassicae (Menge des Wirkstoffs 5 kg/ha), the Erkrankungs-Index is given as 1,3% and the “Verhältnis der erkrankten Pflanzen” value is recorded as 7%. Besides, in series [1] (Menge des Wirkstoffs 5 kg/ha), the Phytotoxizität result is listed as “keine”. The “Grad der der Verletzung” value with Rosellinia necatrix is on record as 0,5.
In the case of `CC(=O)Oc1ccc(Cl)cc1C(=O)NC(OCC(F)(F)F)C(Cl)(Cl)Cl` (centres unmarked) [Verbindung 12], in the series on Plasmodiophora brassicae (Menge des Wirkstoffs 5 kg/ha), the Erkrankungs-Index came to 0% and the “Verhältnis der erkrankten Pflanzen” value is reported as 0%. Besides, the Phytotoxizität entry in series [1] (Menge des Wirkstoffs 5 kg/ha) was “keine”. In addition, the “Grad der der Verletzung” value in the series with Rosellinia necatrix is reported as 0. Further, in the series on Rhizopus oryzae (setting [2]), the Bekämpfungs-Index is on record as 94%, the “Grad der Verletzung” value is 3,0% and the “Verhältnis der gesunden Setzlinge” value was 90,5%.
Take `COC(NC(=O)c1cc(Cl)ccc1O)C(Cl)(Cl)Cl` (centres unmarked) [Verbindung 13]: the “Grad der der Verletzung” value with Rosellinia necatrix was 0,5. For the same compound, in the series with Rhizopus oryzae (setting [2]), the Bekämpfungs-Index is reported as 94%, the “Grad der Verletzung” value is recorded as 3,0% and the “Verhältnis der gesunden Setzlinge” value is recorded as 85,0%.
For the compound `CCOC(NC(=O)c1cc(Cl)ccc1OC(C)=O)C(Cl)(Cl)Cl` (centres unmarked) [Verbindung 20, N-(2,2,2-Trichloro-1-ethoxyethyl)-2-acetoxy-5-chlorobenzamid], in the series on Rosellinia necatrix, the “Grad der der Verletzung” value is listed as 0,3.
